Where a name gives a salt, the structure may show the parent alone.
Tested on: panel of breast cancer cell lines
Assay: Compound A with targeted agents and chemotherapies, 72-hour in vitro proliferation assays
Assay type: cell-based
Details: 72-hour proliferation
[1] = AU565 cell line, compound A × partner
[2] = BT-20 cell line, compound A × partner
[3] = CAL-51 cell line, compound A × partner
[4] = CAL-85-1 cell line, compound A × partner
[5] = CAL-120 cell line, compound A × partner
[6] = CAL-148 cell line, compound A × partner
[7] = CAMA-1 cell line, compound A × partner
[8] = DU-4475 cell line, compound A × partner
[9] = EVSA-T cell line, compound A × partner

`CC(C)NC[C@@H](C(=O)N1CCN(c2ncnc3c2[C@H](C)C[C@H]3O)CC1)c1ccc(Cl)cc1` [GDC-0068] was tested, and the “Best CI” value [1] was 0.88, the “Bliss Volume” value [1] was 5.42 and the HSA volume [1] was 2.46. For the same compound, the “Loewe Volume” value [1] was 1.85, the “Synergy Score” value [1] was 6.93 and the “Best CI” value [2] was 0.15. The “Bliss Volume” value [2] was 14.37, the HSA volume [2] was 13.36 and the “Loewe Volume” value [2] was 11.91. The “Synergy Score” value [2] was 26.99, the “Best CI” value [3] was 0.66 and the “Bliss Volume” value [3] was 1.90. For the same compound, the HSA volume [3] was 2.22, the “Loewe Volume” value [3] was 2.48 and the “Synergy Score” value [3] was 1.93. For the same compound, the “Best CI” value [4] was 0.22, the “Bliss Volume” value [4] was −1.63 and the HSA volume [4] was 2.26. The “Loewe Volume” value [4] was 1.63, the “Synergy Score” value [4] was 4.37 and the “Best CI” value [5] was 0.04. The “Bliss Volume” value [5] was −1.18, the HSA volume [5] was −0.50 and the “Loewe Volume” value [5] was 0.09. For the same compound, the “Synergy Score” value [5] was 1.05, the “Best CI” value [6] was 0.20 and the “Bliss Volume” value [6] was 15.98. For the same compound, the HSA volume [6] was 11.23, the “Loewe Volume” value [6] was 11.35 and the “Synergy Score” value [6] was 22.09. The “Best CI” value [7] was 0.11, the “Bliss Volume” value [7] was 26.60 and the HSA volume [7] was 14.33. For the same compound, the “Loewe Volume” value [7] was 13.52, the “Synergy Score” value [7] was 27.46 and the “Bliss Volume” value [8] was −5.18. The HSA volume [8] was −7.77, the “Loewe Volume” value [8] was −5.05 and the “Synergy Score” value [8] was 0.20. The “Best CI” value [9] was 0.27, the “Bliss Volume” value [9] was 38.10 and the HSA volume [9] was 10.77. The “Loewe Volume” value [9] was 8.56, the “Synergy Score” value [9] was 18.16 and the “Best CI” value (HCC38, compound A × partner) was 1.04. For the same compound, the “Bliss Volume” value (HCC38, compound A × partner) was 3.63, the HSA volume (HCC38, compound A × partner) was 6.49 and the “Loewe Volume” value (HCC38, compound A × partner) was 5.61. For the same compound, the “Synergy Score” value (HCC38, compound A × partner) was 5.92, the “Best CI” value (HCC70, compound A × partner) was 0.30 and the “Bliss Volume” value (HCC70, compound A × partner) was 19.29. The HSA volume (HCC70, compound A × partner) was 14.42, the “Loewe Volume” value (HCC70, compound A × partner) was 13.10 and the “Synergy Score” value (HCC70, compound A × partner) was 27.63. For the same compound, the “Best CI” value (HCC1143, compound A × partner) was 0.56, the “Bliss Volume” value (HCC1143, compound A × partner) was 1.41 and the HSA volume (HCC1143, compound A × partner) was −1.97. For the same compound, the “Loewe Volume” value (HCC1143, compound A × partner) was 1.22, the “Synergy Score” value (HCC1143, compound A × partner) was 3.73 and the “Best CI” value (HCC1569, compound A × partner) was 0.24. The “Bliss Volume” value (HCC1569, compound A × partner) was 9.34, the HSA volume (HCC1569, compound A × partner) was 10.52 and the “Loewe Volume” value (HCC1569, compound A × partner) was 10.52. The “Synergy Score” value (HCC1569, compound A × partner) was 15.41, the “Best CI” value (HCC1806, compound A × partner) was 0.83 and the “Bliss Volume” value (HCC1806, compound A × partner) was 4.78. The HSA volume (HCC1806, compound A × partner) was −2.22, the “Loewe Volume” value (HCC1806, compound A × partner) was 2.14 and the “Synergy Score” value (HCC1806, compound A × partner) was 2.21. The “Best CI” value (HCC1937, compound A × partner) was 0.44, the “Bliss Volume” value (HCC1937, compound A × partner) was 8.88 and the HSA volume (HCC1937, compound A × partner) was 6.08. The “Loewe Volume” value (HCC1937, compound A × partner) was 8.48, the “Synergy Score” value (HCC1937, compound A × partner) was 6.18 and the “Best CI” value (HCC1954, compound A × partner) was 0.16. For the same compound, the “Bliss Volume” value (HCC1954, compound A × partner) was 19.16, the HSA volume (HCC1954, compound A × partner) was 18.41 and the “Loewe Volume” value (HCC1954, compound A × partner) was 17.07. For the same compound, the “Synergy Score” value (HCC1954, compound A × partner) was 33.91, the “Best CI” value (HCC2218, compound A × partner) was 0.13 and the “Bliss Volume” value (HCC2218, compound A × partner) was 10.70. The HSA volume (HCC2218, compound A × partner) was 8.89, the “Loewe Volume” value (HCC2218, compound A × partner) was 7.71 and the “Synergy Score” value (HCC2218, compound A × partner) was 22.09. The “Best CI” value (HDQ-P1, compound A × partner) was 1.46, the “Bliss Volume” value (HDQ-P1, compound A × partner) was −1.34 and the HSA volume (HDQ-P1, compound A × partner) was −1.27. The “Loewe Volume” value (HDQ-P1, compound A × partner) was −2.21, the “Synergy Score” value (HDQ-P1, compound A × partner) was 1.94 and the “Best CI” value (HMC-1-8, compound A × partner) was 0.26. For the same compound, the “Bliss Volume” value (HMC-1-8, compound A × partner) was 17.75, the HSA volume (HMC-1-8, compound A × partner) was 12.01 and the “Loewe Volume” value (HMC-1-8, compound A × partner) was 12.08. For the same compound, the “Synergy Score” value (HMC-1-8, compound A × partner) was 21.76, the “Best CI” value (JIMT-1, compound A × partner) was 0.26 and the “Bliss Volume” value (JIMT-1, compound A × partner) was 2.76. The HSA volume (JIMT-1, compound A × partner) was 1.18, the “Loewe Volume” value (JIMT-1, compound A × partner) was 1.53 and the “Synergy Score” value (JIMT-1, compound A × partner) was 1.19. For the same compound, the “Synergy Score” value (KPL-1, compound A × partner) was 10.58.
With `Nc1ccn([C@@H]2O[C@H](CO)[C@@H](O)C2(F)F)c(=O)n1` [Gemcitabine Hydrochloride] the “Best CI” value [1] was 0.56, the “Bliss Volume” value [1] was 10.13 and the HSA volume [1] was 3.57. For the same compound, the “Loewe Volume” value [1] was 2.71, the “Synergy Score” value [1] was 9.40 and the “Best CI” value [2] was 0.70. The “Bliss Volume” value [2] was 4.35, the HSA volume [2] was 4.94 and the “Loewe Volume” value [2] was 3.32. For the same compound, the “Synergy Score” value [2] was 11.12, the “Best CI” value [3] was 0.47 and the “Bliss Volume” value [3] was 3.26. For the same compound, the HSA volume [3] was 3.22, the “Loewe Volume” value [3] was 3.49 and the “Synergy Score” value [3] was 5.10. For the same compound, the “Best CI” value [4] was 0.58, the “Bliss Volume” value [4] was 9.98 and the HSA volume [4] was 8.91. The “Loewe Volume” value [4] was 7.81, the “Synergy Score” value [4] was 10.96 and the “Best CI” value [5] was 0.21. The “Bliss Volume” value [5] was −5.00, the HSA volume [5] was −5.87 and the “Loewe Volume” value [5] was −4.98. The “Synergy Score” value [5] was 0.88, the “Best CI” value [6] was 0.36 and the “Bliss Volume” value [6] was 19.19. The HSA volume [6] was 20.88, the “Loewe Volume” value [6] was 20.22 and the “Synergy Score” value [6] was 35.99. The “Best CI” value [7] was 0.06, the “Bliss Volume” value [7] was 26.55 and the HSA volume [7] was 18.50. The “Loewe Volume” value [7] was 18.89, the “Synergy Score” value [7] was 40.36 and the “Bliss Volume” value [8] was −3.76. The HSA volume [8] was −3.58, the “Loewe Volume” value [8] was −2.68 and the “Synergy Score” value [8] was 0.17. For the same compound, the “Best CI” value [9] was 1.07, the “Bliss Volume” value [9] was 9.65 and the HSA volume [9] was 2.02. The “Loewe Volume” value [9] was 1.29, the “Synergy Score” value [9] was 5.11 and the “Best CI” value (HCC38, compound A × partner) was 0.51. The “Bliss Volume” value (HCC38, compound A × partner) was 21.72, the HSA volume (HCC38, compound A × partner) was 8.18 and the “Loewe Volume” value (HCC38, compound A × partner) was 6.75. The “Synergy Score” value (HCC38, compound A × partner) was 14.50, the “Best CI” value (HCC70, compound A × partner) was 0.26 and the “Bliss Volume” value (HCC70, compound A × partner) was 18.66. For the same compound, the HSA volume (HCC70, compound A × partner) was 18.52, the “Loewe Volume” value (HCC70, compound A × partner) was 17.52 and the “Synergy Score” value (HCC70, compound A × partner) was 26.37. The “Best CI” value (HCC1143, compound A × partner) was 0.15, the “Bliss Volume” value (HCC1143, compound A × partner) was 4.32 and the HSA volume (HCC1143, compound A × partner) was 8.39. For the same compound, the “Loewe Volume” value (HCC1143, compound A × partner) was 7.81, the “Synergy Score” value (HCC1143, compound A × partner) was 9.41 and the “Best CI” value (HCC1569, compound A × partner) was 0.68. The “Bliss Volume” value (HCC1569, compound A × partner) was 3.74, the HSA volume (HCC1569, compound A × partner) was 6.80 and the “Loewe Volume” value (HCC1569, compound A × partner) was 6.28. For the same compound, the “Synergy Score” value (HCC1569, compound A × partner) was 5.52, the “Best CI” value (HCC1806, compound A × partner) was 0.13 and the “Bliss Volume” value (HCC1806, compound A × partner) was 17.89. The HSA volume (HCC1806, compound A × partner) was 18.06, the “Loewe Volume” value (HCC1806, compound A × partner) was 17.74 and the “Synergy Score” value (HCC1806, compound A × partner) was 30.81. For the same compound, the “Best CI” value (HCC1937, compound A × partner) was 0.45, the “Bliss Volume” value (HCC1937, compound A × partner) was 2.34 and the HSA volume (HCC1937, compound A × partner) was 0.77. For the same compound, the “Loewe Volume” value (HCC1937, compound A × partner) was 2.36, the “Synergy Score” value (HCC1937, compound A × partner) was 2.33 and the “Best CI” value (HCC1954, compound A × partner) was 0.28. For the same compound, the “Bliss Volume” value (HCC1954, compound A × partner) was 3.78, the HSA volume (HCC1954, compound A × partner) was 5.17 and the “Loewe Volume” value (HCC1954, compound A × partner) was 5.09. For the same compound, the “Synergy Score” value (HCC1954, compound A × partner) was 7.13, the “Best CI” value (HCC2218, compound A × partner) was 0.36 and the “Bliss Volume” value (HCC2218, compound A × partner) was 5.46. The HSA volume (HCC2218, compound A × partner) was 4.02, the “Loewe Volume” value (HCC2218, compound A × partner) was 2.80 and the “Synergy Score” value (HCC2218, compound A × partner) was 6.54. For the same compound, the “Best CI” value (HDQ-P1, compound A × partner) was 0.40, the “Bliss Volume” value (HDQ-P1, compound A × partner) was −3.49 and the HSA volume (HDQ-P1, compound A × partner) was −0.19. The “Loewe Volume” value (HDQ-P1, compound A × partner) was 0.42, the “Synergy Score” value (HDQ-P1, compound A × partner) was 2.05 and the “Best CI” value (HMC-1-8, compound A × partner) was 0.19. The “Bliss Volume” value (HMC-1-8, compound A × partner) was 24.97, the HSA volume (HMC-1-8, compound A × partner) was 9.34 and the “Loewe Volume” value (HMC-1-8, compound A × partner) was 8.40. The “Synergy Score” value (HMC-1-8, compound A × partner) was 17.19, the “Best CI” value (JIMT-1, compound A × partner) was 0.05 and the “Bliss Volume” value (JIMT-1, compound A × partner) was 4.37. The HSA volume (JIMT-1, compound A × partner) was 3.74, the “Loewe Volume” value (JIMT-1, compound A × partner) was 3.50 and the “Synergy Score” value (JIMT-1, compound A × partner) was 1.80. The “Synergy Score” value (MCF7 cells, Compound A × partner agent) was 11.61.

Source: patent US11931424B2, “Combination MCL-1 inhibitors with anti-body drug conjugates” (Gilead Sciences, Inc., priority 2021, dated 2024)
